From patent US20080004180A1, “Novel Herbicides Based on Substituted Thien-3-Yl-Sulphonylamino(Thio) Carbonyl-Triazolin(Thi)Ones and 4-Hppd-Inhibitors” (Bayer Cropscience AG, priority 2004, published 2008)

How the values were obtained:
Format in all cases: in vivo
Amaranthus rudis = assay: Herbicidal action against Amaranthus rudis, single ingredients and combinations, with Colby expected action
From the text: (§1) A synergistic effect is present in the case of herbicides whenever the herbicidal action of the active ingredient combination is greater than that of the individual active ingredients applied.
(§2) The anticipated action for a given combination of two herbicides can be calculated as follows (cf. COLBY, S. R.: “Calculating synergistic and antagonistic responses of herbicide combinations”, Weeds 15, pages 20-22, 1967):
(§3) If • X=% damage by herbicide A (active ingredient of formula I) at p kg/ha application rate • and • Y=% damage by herbicide B (active ingredient of Formula II) at q kg/ha application rate • and • E=the expected damage of the herbicides A and B at p and q kg/ha application rate, • then E=X+Y−(X*Y/100).

Alopecurus myosuroides = assay: Herbicidal action against Alopecurus myosuroides, single ingredients and combinations, with Colby expected action
From the text: as §1, §2, §3

Galium aparine = assay: Herbicidal action against Galium aparine, single ingredients and combinations, with Colby expected action; conditions: Table A-3 (first); application rate 3.75 g a.i./ha
From the text: as §1, §2, §3

## CS(=O)(=O)c1ccc(C(=O)C2C(=O)CCCC2=O)c(Cl)c1COCC1CCCO1 (centres unmarked) [Compound (B.7)]
Amaranthus rudis; Table A-2, application rate 3.75 g a.i./ha
  Action against Amaranthus rudis (%): 35%
Amaranthus rudis; Table A-4, application rate 7.5 g a.i./ha
  Action against Amaranthus rudis (%): 0%
Alopecurus myosuroides; Table A-1, application rate 3.75 g a.i./ha
  Action against Alopecurus myosuroides (%): 0%
Alopecurus myosuroides; Table A-3 (second), application rate 7.5 g a.i./ha
  Action against Alopecurus myosuroides (%): 0%
Galium aparine
  Action against Galium aparine (%): 0%
